From ChEMBL document CHEMBL4387739, “Discovery of antichagasic inhibitors by high-throughput screening with Trypanosoma cruzi glucokinase” (Bioorg Med Chem Lett, 2019)

Legend:
Homo sapiens = organism: Homo sapiens; assay: Inhibition of human glucose-6-phosphate dehydrogenase truncated mutant (29 to 511 residues) at 20 uM in presence of NADP and glucose-6-phosphate by diaphorase/resazurin coupled fluorescence assay relative to control
[1] = Inhibition of Trypanosoma cruzi glucokinase using D-glucose as substrate in presence of ATP and […] measured for every 30 secs for 10 mins by resazurin dye based G6PDH-diaphorase coupled fluorescence assay relative to control
Trypanosoma cruzi [2] = assay: Inhibition of Trypanosoma cruzi glucokinase at 20 uM using D-glucose as substrate after 1 hr in presence of ATP and […] by resazurin dye based G6PDH-diaphorase coupled fluorescence assay relative to control
Trypanosoma cruzi [3] = assay: Antitrypanosomal activity against Trypanosoma cruzi Tulahuen […] infected in mouse NIH/3T3 cells assessed as parasite viability at 80 uM by beta-galactosidase reporter gene assay relative to control; type: functional
[4] = Cytotoxicity against mouse NIH/3T3 cells after 72 hrs by alamar blue assay; type: cell-based, NIH3T3; details: read-out: TC50
Trypanosoma cruzi [5] = assay: Antitrypanosomal activity against Trypanosoma cruzi Tulahuen […] infected in mouse NIH/3T3 cells assessed as reduction in parasite viability by beta-galactosidase reporter gene assay; type: functional, organism-based; details: NIH3T3

| Compound | inhibition (Homo sapiens) [%] | IC50 [1] [µM] | inhibition (Trypanosoma cruzi [2]) [%] | Activity (Trypanosoma cruzi [3]) [%] | CC50 at 72 h [4] [µM] | EC50 (Trypanosoma cruzi [5]) [µM] |
| --- | --- | --- | --- | --- | --- | --- |
| COc1ccc([C@@H]2Oc3ccccc3C=C2[N+](=O)[O-])cc1OC | 8.1 | 53.2 | 41.5 | 0 |  |  |
| CCOc1ccc([C@@H]2Oc3ccccc3C=C2[N+](=O)[O-])cc1OCC | 4.3 |  | 72.9 | 0 |  |  |
| Cc1nn(-c2cccc(Cl)c2)c2c1C(c1cc([N+](=O)[O-])ccc1Cl)C(C#N)=C(N)O2 (stereo not drawn) | 1.7 |  | 36.8 | 0 |  |  |
| O=C1NC(=O)C(=Cc2ccc3c(c2)OCO3)C(=O)N1 | 5.5 | 8.7 | 67 | 81.2 |  |  |
| O=C(O)C1Nc2c(I)cccc2C2C=CCC12 (stereo not drawn) | 19 |  | 74.2 | 44.3 |  |  |
| Cc1nn(-c2ccccc2)c2c1C(c1ccc(F)cc1)C(C#N)=C(N)O2 (stereo not drawn) | 2.7 | 17.1 | 55 | 87.1 |  |  |
| O=[N+]([O-])C1=Cc2c(ccc3ccccc23)O[C@H]1c1ccc2c(c1)OCO2 | 8.2 |  | 68.4 | 0 |  |  |
| COc1ccc(Br)cc1/C=C1\C(=O)NC(=O)N(CCC2=CCCCC2)C1=O | 16.3 | 8 | 59.8 | 88.7 |  |  |
| O=C1NC(=O)C(=Cc2ccc(O)c(O)c2)C(=O)N1 | 2 | 3.1 | 79.4 | 62.8 |  |  |
| COc1ccc(Br)cc1C1C(C#N)=C(N)Oc2c1c(C)nn2-c1ccccc1 (stereo not drawn) | 14 |  | 72.9 | 0 |  |  |
| CCOc1ccc([C@@H]2Oc3c(Cl)cc(Cl)cc3C=C2[N+](=O)[O-])cc1OCC | 9.3 | 4.8 | 58.7 | 0 | < 100 | 2.9 |
| O=C1NC(=O)C(=Cc2ccc(Br)s2)C(=O)N1 | 14.8 | 1.6 | 35.9 | 74.2 |  |  |
| O=C1NC(=O)C(=Cc2ccc(N3CCOCC3)cc2)C(=O)N1 | 1.6 | 0.9 | 49.4 | 88 |  |  |
| OC1(C#CCN2CCCC[C@@H]2c2cccnc2)CCCCCC1 | 7.8 |  | 64 | 22.6 |  |  |
| N#CCCOCCC#CCN1CCCC[C@@H]1c1cccnc1 | 9.2 |  | 36.7 | 50.5 |  |  |
| CCOc1ccc([C@@H]2Oc3ccc(Br)cc3C=C2[N+](=O)[O-])cc1OC | 8.2 | 6.1 | 43.8 | 0 | 80.7 | 2.1 |
| COc1ccc(S(=O)(=O)Nc2cccc(Br)c2)c(Cl)c1Cl | 17.5 | 5.3 | 42.8 | 0 | 69 | 15.4 |
| Cc1cc2c(c(O)c1-c1c(C)cc3c(c1O)/C(=C/Nc1ccc(S(=O)(=O)NC(=N)N)cc1)C(=O)C(O)=C3C(C)C)/C(=C/Nc1ccc(S(=O)(=O)NC(=N)N)cc1)C(=O)C(O)=C2C(C)C | 5.8 | 14.4 | 69.2 | 0 | 45.7 | 17.7 |
| Nc1c(C(=O)c2cccc([N+](=O)[O-])c2)sc2nc(-c3cccnc3)ccc12 | 5.1 |  | 41.8 | 52.7 |  |  |
| O=C1C(=Cc2ccco2)C(=O)N(c2ccccc2)C(=O)N1c1ccccc1 | 6.6 | 0.3 | 54.8 | 66.5 |  |  |
| Cc1cc2c(c(O)c1-c1c(C)cc3c(c1O)/C(=C/Nc1cccc4c(N)cccc14)C(=O)C(O)=C3C(C)C)/C(=C/Nc1cccc3c(N)cccc13)C(=O)C(O)=C2C(C)C | 9.6 | 16.5 | 66.9 | 1.7 |  |  |
| COc1ccc(C(=O)Nc2sc3c(c2C(N)=O)CCCCC3)cc1OC | 12.6 |  | 42.7 | 50.5 |  |  |
| Cc1cc2c(c(O)c1-c1c(C)cc3c(c1O)/C(=C/Nc1c(O)cc(S(=O)(=O)O)c4ccccc14)C(=O)C(O)=C3C(C)C)/C(=C/Nc1c(O)cc(S(=O)(=O)O)c3ccccc13)C(=O)C(O)=C2C(C)C | 9.4 | 30.2 | 57.8 | 20.4 |  |  |
| Cc1ccc(-n2nc(C)c3c2OC(N)=C(C#N)C3c2ccoc2)cc1 (stereo not drawn) | 19.9 |  | 46.3 | 80.6 |  |  |
| CN1C(=O)C(=Cc2ccc(N(C)C)cc2)C(=O)N(C)C1=O | 10 | 5.5 | 63.5 | 78.9 |  |  |
